Assays:
[1] = target: c-Kit kinase (Homo sapiens (Human), UniProt P10721); experiment: c-Kit biochemical assay (AlphaScreen kinase activity)
How it was run: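 AlphaScreen: c-Kit phosphorylates biotin-(E4Y)3 (100 nM) at 10 μM ATP, pH 7.2 HEPES buffer with Mg/Mn, 5% DMSO, 1 h room temperature; streptavidin donor and PY30 acceptor beads detect product. Second format: 100 μM ATP, 30 nM biotin-(E4Y)10, pH 7.5. IC50 from 8-point 1:3 dilution curves.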

[2] = system: BaF3-FL KIT D816V or BaF3-FL KIT V560G/D816V cell line; experiment: Cell-based assays of c-Kit mutant kinase activity (cell proliferation, ATPlite); details: at least one of the c-kit cell assays of Example 7
How it was run: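 BaF3 cells dependent on transfected full-length human KIT D816V or V560G/D816V (pCI-Neo, CMV promoter) were seeded at 1×10^4 cells/well and exposed to 8-point 1:3 dilutions from 10 μM top (0.2% DMSO) for three days at 37° C. ATPlite luminescence gave cell number; IC50 from concentration-response.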

Sequence of c-Kit kinase (P10721 26-976): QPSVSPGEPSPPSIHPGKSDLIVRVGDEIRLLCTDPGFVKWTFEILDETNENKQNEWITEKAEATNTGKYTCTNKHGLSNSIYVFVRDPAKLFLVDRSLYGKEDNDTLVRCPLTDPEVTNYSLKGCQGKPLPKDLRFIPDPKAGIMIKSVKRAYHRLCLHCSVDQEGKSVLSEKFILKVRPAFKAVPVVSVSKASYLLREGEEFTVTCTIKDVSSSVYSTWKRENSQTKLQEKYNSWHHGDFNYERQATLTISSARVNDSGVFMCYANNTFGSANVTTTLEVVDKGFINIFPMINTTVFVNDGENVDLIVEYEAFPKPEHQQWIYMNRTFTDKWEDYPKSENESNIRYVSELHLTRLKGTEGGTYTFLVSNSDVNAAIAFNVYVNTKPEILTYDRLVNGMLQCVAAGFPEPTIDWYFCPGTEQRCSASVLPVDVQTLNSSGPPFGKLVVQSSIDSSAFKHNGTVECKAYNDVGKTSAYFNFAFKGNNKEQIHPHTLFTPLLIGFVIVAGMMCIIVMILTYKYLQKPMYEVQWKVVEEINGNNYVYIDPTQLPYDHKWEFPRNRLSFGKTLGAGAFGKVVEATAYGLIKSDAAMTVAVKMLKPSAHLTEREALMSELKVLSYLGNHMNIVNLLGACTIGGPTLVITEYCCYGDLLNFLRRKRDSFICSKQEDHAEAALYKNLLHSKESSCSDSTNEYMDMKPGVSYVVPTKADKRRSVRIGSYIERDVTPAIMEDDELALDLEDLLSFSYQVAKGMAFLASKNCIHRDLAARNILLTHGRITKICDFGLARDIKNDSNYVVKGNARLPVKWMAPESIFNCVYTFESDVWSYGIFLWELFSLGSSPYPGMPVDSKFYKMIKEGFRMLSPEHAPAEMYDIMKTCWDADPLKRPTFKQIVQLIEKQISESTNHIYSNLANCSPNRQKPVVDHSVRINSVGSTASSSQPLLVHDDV

Compound	IC50 [1] [µM]	IC50 [2] [nM]
COc1cc(-c2cc3c(N4CCC(c5nc(C)c(-c6ccc(C)cc6)[nH]5)CC4)ncnc3[nH]2)ccn1 [P-3088, 6-(2-methoxy-4-pyridyl)-4-[4-[4-methyl-5-(p-tolyl)-1H-imidazol-2-yl]-1-piperidyl]-7H-pyrrolo[2,3-d]pyrimidine]	0.0001 to 1	< 10000
COc1ccc(-c2[nH]c(C3(C)CCN(c4ncnc5[nH]c(-c6ccc(C#N)nc6)cc45)CC3)nc2C)cc1C [P-3250, 5-[4-[4-[5-(4-methoxy-3-methyl-phenyl)-4-methyl-1H-imidazol-2-yl]-4-methyl-1-piperidyl]-7H-pyrrolo[2,3-d]pyrimidin-6-yl]pyridine-2-carbonitrile]	0.0001 to 1	< 10000
CCOc1ccc(-c2[nH]c(C3(C)CCN(c4ncnc5[nH]c(-c6ccc(C#N)nc6)cc45)CC3)nc2C)cc1 [P-3251, 5-[4-[4-[5-(4-ethoxyphenyl)-4-methyl-1H-imidazol-2-yl]-4-methyl-1-piperidyl]-7H-pyrrolo[2,3-d]pyrimidin-6-yl]pyridine-2-carbonitrile]	0.0001 to 1	< 10000
Cc1nc(C2(C)CCN(c3ncnc4[nH]c(-c5ccc(NS(C)(=O)=O)cc5)cc34)CC2)[nH]c1-c1ccc(C(F)F)cc1 [P-3252, N-[4-[4-[4-[5-[4-(difluoromethyl)phenyl]-4-methyl-1H-imidazol-2-yl]-4-methyl-1-piperidyl]-7H-pyrrolo[2,3-d]pyrimidin-6-yl]phenyl]methanesulfonamide]	0.0001 to 1	< 10000
Cc1nc(C2(C)CCN(c3ncnc4[nH]c(-c5ccc(C(N)=O)cc5)cc34)CC2)[nH]c1-c1ccc(OC(F)F)cc1 [P-3253, 4-[4-[4-[5-[4-(difluoromethoxy)phenyl]-4-methyl-1H-imidazol-2-yl]-4-methyl-1-piperidyl]-7H-pyrrolo[2,3-d]pyrimidin-6-yl]benzamide]	0.0001 to 1	< 10000
Cc1nc(C2(C)CCN(c3ncnc4[nH]c(-c5ccc(NS(C)(=O)=O)cc5)cc34)CC2)[nH]c1-c1ccc(OC(F)F)cc1 [P-3254, N-[4-[4-[4-[5-[4-(difluoromethoxy)phenyl]-4-methyl-1H-imidazol-2-yl]-4-methyl-1-piperidyl]-7H-pyrrolo[2,3-d]pyrimidin-6-yl]phenyl]methanesulfonamide]	0.0001 to 1	< 10000
Cc1nc(C2(C)CCN(c3ncnc4[nH]c(-c5ccc(C#N)nc5)cc34)CC2)[nH]c1-c1cccc(OC(F)F)c1 [P-3255, 5-[4-[4-[5-[3-(difluoromethoxy)phenyl]-4-methyl-1H-imidazol-2-yl]-4-methyl-1-piperidyl]-7H-pyrrolo[2,3-d]pyrimidin-6-yl]pyridine-2-carbonitrile]	1 to 10	< 10000
COc1cccc(-c2[nH]c(C3(C)CCN(c4ncnc5[nH]c(-c6ccc(C#N)nc6)cc45)CC3)nc2C)c1 [P-3256, 5-[4-[4-[5-(3-methoxyphenyl)-4-methyl-1H-imidazol-2-yl]-4-methyl-1-piperidyl]-7H-pyrrolo[2,3-d]pyrimidin-6-yl]pyridine-2-carbonitrile]	0.0001 to 1	< 10000

From US9771369B2, “Compounds and methods for kinase modulation, and indications therefor” (Plexxikon Inc., priority 2014, dated 2017)
